Consider 29 compounds from patent publication US20220380374A1, “1,4-DIHYDROBENZO[D]PYRAZOLO[3,4-F][1,3]DIAZEPINE DERIVATIVES AND RELATED COMPOUNDS AS LRRK2, NUAK1 AND/OR TYK2 KINASE MODULATORS FOR THE TREATMENT OF E.G. AUTOIMMUNE DISEASE” (Origenis GMBH, priority 2019, published 2022).

The target of this assay is T1, wt human NUAK1, full length (Homo sapiens, UniProt O60285).
T1 construct: 8 nM wt human NUAK1, full length (ThermoFisher/USA); purchased ThermoFisher/USA
T1 sequence (O60285 1-661): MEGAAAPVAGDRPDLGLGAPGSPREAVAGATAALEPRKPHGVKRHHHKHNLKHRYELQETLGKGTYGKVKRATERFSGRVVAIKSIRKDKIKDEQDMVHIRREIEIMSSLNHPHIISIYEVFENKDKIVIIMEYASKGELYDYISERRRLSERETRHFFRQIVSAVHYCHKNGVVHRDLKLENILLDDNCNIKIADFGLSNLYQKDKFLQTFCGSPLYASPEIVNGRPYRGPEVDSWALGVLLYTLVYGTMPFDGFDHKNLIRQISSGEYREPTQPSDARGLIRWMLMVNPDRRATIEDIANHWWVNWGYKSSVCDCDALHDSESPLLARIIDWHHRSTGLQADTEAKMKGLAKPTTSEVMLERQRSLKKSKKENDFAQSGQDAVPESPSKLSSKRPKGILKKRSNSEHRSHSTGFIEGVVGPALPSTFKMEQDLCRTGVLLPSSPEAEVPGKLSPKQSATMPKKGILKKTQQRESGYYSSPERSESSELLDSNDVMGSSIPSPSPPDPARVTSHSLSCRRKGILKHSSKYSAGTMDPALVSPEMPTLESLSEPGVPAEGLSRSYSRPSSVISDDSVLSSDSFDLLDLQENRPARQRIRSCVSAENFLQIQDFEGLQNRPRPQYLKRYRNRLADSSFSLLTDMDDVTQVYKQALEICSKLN
Briefly: TR-FRET LanthaScreen Eu Kinase Binding Assay, NUAK1. The following applies: 5 nM Kinase Tracer 236; read-out: IC50, inhibitory activity toward NUAK1. The procedure:
The basic protocol for TR-FRET LanthaScreen Eu Kinase Binding Assay inhibitor studies were performed as follows. LanthaScreen Kinase Binding Assays (ThermoFisher/USA) to evaluate inhibitors were performed by addition of 5 μl of test compound in corresponding DMSO dilutions/5 μl of kinase/antibody mixture, 5 μl of tracer into 384 well small volume plates. After incubation for 1 hour at room temperature, plates were read. Data analysis of emission ratios was according to LanthaScreen Eu Kinase Binding Assay protocol.
Kinase and assay components were adjusted to final concentrations according to the kit protocol. For LRRK2: 5 nM wt human LRRK2, catalytic site, or G2019S human LRRK2, catalytic site (ThermoFisher/USA), 2 nM Eu-Anti-GST Antibody, 10 nM Kinase Tracer 236 in 1× Kinase Buffer A. For NUAK1: 8 nM wt human NUAK1, full length (ThermoFisher/USA), 2 nM Eu-Anti-His Antibody, 5 nM Kinase Tracer 236 in 1× Kinase Buffer A.
Background: In TR-FRET formats the signal depends on donor and acceptor labels being close together.

Turning to `Fc1cccc(F)c1C1=Nc2cn[nH]c2-c2cc(OC(F)(F)F)ccc2N1` [Compound 40, 5-(2,6-difluorophenyl)-9-(trifluoromethoxy)-1,6-dihydrobenzo[d]pyrazolo[3,4-f][1,3]diazepine], the IC50 (in general, the concentration needed to halve the response being measured) lay within 100 to 1000 nM.
In the case of `Fc1cccc(Cl)c1C1=Nc2cn[nH]c2-c2cc(OC(F)(F)F)ccc2N1` [Compound 41, 5-(2-chloro-6-fluorophenyl)-9-(trifluoromethoxy)-1,6-dihydrobenzo[d]pyrazolo[3,4-f][1,3]diazepine], the IC50 lay within 100 to 1000 nM.
To `CCc1ccc2c(c1)-c1[nH]ncc1N=C(c1c(F)cccc1F)N2` [Compound 44, 5-(2,6-difluorophenyl)-9-ethyl-1,6-dihydrobenzo[d]pyrazolo[3,4-f][1,3]diazepine] belongs 10 to 100 nM; to `Fc1cccc(F)c1C1=Nc2cn[nH]c2-c2cc(C(F)(F)F)ccc2N1` [Compound 46, 5-(2,6-difluorophenyl)-9-(trifluoromethyl)-1,6-dihydrobenzo[d]pyrazolo[3,4-f][1,3]diazepine], 10 to 100 nM; to `Fc1cccc(Cl)c1C1=Nc2cn[nH]c2-c2cc(C(F)(F)F)ccc2N1` [Compound 47, 5-(2-chloro-6-fluorophenyl)-9-(trifluoromethyl)-1,6-dihydrobenzo[d]pyrazolo[3,4-f][1,3]diazepine], 100 to 1000 nM.
Take `FCc1ccc2c(c1)-c1[nH]ncc1N=C(c1c(F)cccc1F)N2` [Compound 51, 5-(2,6-difluorophenyl)-9-(fluoromethyl)-1,6-dihydrobenzo[d]pyrazolo[3,4-f][1,3]diazepine]: the half-inhibitory concentration (IC50) lay in the range of 100 to 1000 nM.
To `Fc1cccc(F)c1C1=Nc2cn[nH]c2-c2cc(-c3ccc[nH]3)cnc2N1` [Compound 87, 5-(2,6-difluorophenyl)-9-(1H-pyrrol-2-yl)-1,6-dihydropyrazolo[4,3-d]pyrido[3,2-f][1,3]diazepine] belongs 100 to 1000 nM.
As for `CC(C)Oc1ccc2c(c1)NC(c1c(F)cccc1F)=Nc1cn[nH]c1-2` [Compound 100, 5-(2,6-difluorophenyl)-8-isopropoxy-1,6-dihydrobenzo[d]pyrazolo[3,4-f][1,3]diazepine], the figure is 100 to 1000 nM; as for `Fc1cccc(F)c1C1=Nc2cn[nH]c2-c2cc(OC3CCOCC3)ccc2N1` [Compound 102, 5-(2,6-difluorophenyl)-9-((tetrahydro-2H-pyran-4-yl)oxy)-1,6-dihydrobenzo[d]pyrazolo[3,4-f][1,3]diazepine], 100 to 1000 nM.
To `CN(C)C(=O)Oc1ccc2c(c1)-c1[nH]ncc1NC(c1c(F)cccc1F)=N2` [Compound 136, 5-(2,6-difluorophenyl)-1,4-dihydrobenzo[d]pyrazolo[3,4-f][1,3]diazepin-9-yl dimethylcarbamate] belongs 100 to 1000 nM; to `Fc1cccc(F)c1C1=Nc2c(C3CC3)n[nH]c2-c2ccccc2N1` [Compound 137, 3-cyclopropyl-5-(2,6-difluorophenyl)-1,6-dihydrobenzo[d]pyrazolo[3,4-f][1,3]diazepine], 100 to 1000 nM; to `NC(=O)c1cnc2c(c1)-c1[nH]ncc1N=C(c1c(F)cccc1F)N2` [Compound 140, 5-(2,6-difluorophenyl)-1,6-dihydropyrazolo[4,3-d]pyrido[3,2-f][1,3]diazepine-9-carboxamide], 100 to 1000 nM.
Turning to `CSc1n[nH]c2c1NC(c1c(F)cccc1F)=Nc1ccc(C)cc1-2` [Compound 145, 5-(2,6-difluorophenyl)-9-methyl-3-(methylthio)-1,4-dihydrobenzo[d]pyrazolo[3,4-f][1,3]diazepine], the IC50 is 100 to 1000 nM.
As for `CCc1cc(F)c2c(c1)-c1[nH]ncc1NC(c1c(F)cccc1F)=N2` [Compound 167, 5-(2,6-difluorophenyl)-9-ethyl-7-fluoro-1,4-dihydrobenzo[d]pyrazolo[3,4-f][1,3]diazepine], the figure is 100 to 1000 nM; as for `COc1cc(F)c(C2=Nc3cn[nH]c3-c3cc(C)ccc3N2)c(F)c1` [Compound 173, 5-(2,6-difluoro-4-methoxyphenyl)-9-methyl-1,6-dihydrobenzo[d]pyrazolo[3,4-f][1,3]diazepine], 10 to 100 nM; as for `Cc1ccc2c(c1)-c1[nH]ncc1N=C(c1c(F)cc(F)cc1F)N2` [Compound 175, 9-methyl-5-(2,4,6-trifluorophenyl)-1,6-dihydrobenzo[d]pyrazolo[3,4-f][1,3]diazepine], 10 to 100 nM.
As for `Cc1ccc2c(c1)-c1[nH]ncc1N=C(c1c(F)cc(Br)cc1F)N2` [Compound 176, 5-(4-bromo-2,6-difluorophenyl)-9-methyl-1,6-dihydrobenzo[d]pyrazolo[3,4-f][1,3]diazepine], the figure is 100 to 1000 nM; as for `Cc1ccc2c(c1)-c1[nH]ncc1N=C(c1c(F)ccc(N)c1F)N2` [Compound 177, 2,4-difluoro-3-(9-methyl-1,6-dihydrobenzo[d]pyrazolo[3,4-f][1,3]diazepin-5-yl)aniline], 100 to 1000 nM.
As for `Cc1ccc2c(c1)-c1n[nH]cc1NC(c1c(F)ccc(C)c1F)=N2` [Compound 178, 5-(2,6-difluoro-3-methylphenyl)-9-methyl-2,4-dihydrobenzo[d]pyrazolo[3,4-f][1,3]diazepine], the figure is 10 to 100 nM.
`Cc1cc(F)c(C2=Nc3ccc(C)cc3-c3n[nH]cc3N2)c(F)c1` [Compound 179, 5-(2,6-difluoro-4-methylphenyl)-9-methyl-2,4-dihydrobenzo[d]pyrazolo[3,4-f][1,3]diazepine]: the half-maximal inhibitory concentration (IC50) was in the range of 10 to 100 nM.
Turning to `Cc1ccc2c(c1)-c1[nH]ncc1NC(c1c(F)ccc(F)c1Cl)=N2` [Compound 185, 5-(2-chloro-3,6-difluorophenyl)-9-methyl-1,4-dihydrobenzo[d]pyrazolo[3,4-f][1,3]diazepine], the half-maximal inhibitory concentration (IC50) fell in the range of 100 to 1000 nM.
As for `Fc1cccc(Cl)c1C1=Nc2cnc(C(F)(F)F)cc2-c2[nH]ncc2N1` [Compound 188, 5-(2-chloro-6-fluorophenyl)-9-(trifluoromethyl)-1,4-dihydropyrazolo[4,3-d]pyrido[4,3-f][1,3]diazepine], the figure is 100 to 1000 nM; as for `FCCc1ccc2c(c1)-c1n[nH]cc1NC(c1c(F)cccc1F)=N2` [Compound 204, 5-(2,6-difluorophenyl)-9-(2-fluoroethyl)-2,4-dihydrobenzo[d]pyrazolo[3,4-f][1,3]diazepine], 100 to 1000 nM; as for `Cc1ccc2c(c1)-c1n[nH]cc1NC(c1c(F)cc(C(F)(F)F)cc1F)=N2` [Compound 205, 5-(2,6-difluoro-4-(trifluoromethyl)phenyl)-9-methyl-2,4-dihydrobenzo[d]pyrazolo[3,4-f][1,3]diazepine], 100 to 1000 nM.
As for `Cc1ccc2c(c1)-c1n[nH]cc1NC(c1c(F)cccc1C(F)(F)F)=N2` [Compound 206, 5-(2-fluoro-6-(trifluoromethyl)phenyl)-9-methyl-2,4-dihydrobenzo[d]pyrazolo[3,4-f][1,3]diazepine], the IC50 lay within 100 to 1000 nM.
For the compound `O=C(Nc1ccc2c(c1)-c1n[nH]cc1NC(c1c(F)cccc1F)=N2)OCc1ccccc1` [Compound 207, benzyl(5-(2,6-difluorophenyl)-2,4-dihydrobenzo[d]pyrazolo[3,4-f][1,3]diazepin-9-yl)carbamate], the IC50 lay in the range of 10 to 100 nM.
To `OCCc1ccc2c(c1)-c1n[nH]cc1NC(c1c(F)cccc1F)=N2` [Compound 208, 2-(5-(2,6-difluorophenyl)-2,4-dihydrobenzo[d]pyrazolo[3,4-f][1,3]diazepin-9-yl)ethan-1-ol] belongs 100 to 1000 nM; to `Fc1cccc(F)c1C1=Nc2ccc(CCCl)cc2-c2n[nH]cc2N1` [Compound 209, 9-(2-chloroethyl)-5-(2,6-difluorophenyl)-2,4-dihydrobenzo[d]pyrazolo[3,4-f][1,3]diazepine], 10 to 100 nM.
To `Cc1ccc2c(c1)-c1n[nH]c(C)c1NC(c1c(F)cccc1F)=N2` [Compound 212, 5-(2,6-difluorophenyl)-3,9-dimethyl-2,4-dihydrobenzo[d]pyrazolo[3,4-f][1,3]diazepine] belongs 100 to 1000 nM.
